Where two headings read alike, the source gives them in different places. Peptide text beside a SMILES is read from it.
How the values were obtained:
[1] = system: honeybees exposed to H. alvei; test: H. alvei infection survival assay; type: in vivo, Apis mellifera; conditions: adult worker bees fed 450 μg/ml tetracycline in sucrose syrup, then orally exposed to H. alvei SMH01 for 24 h; N = 30 bees per group; Mantel-Cox test, P < 0.05
Protocol: Using in vivo virulence assays, we first explored whether H. alvei is pathogenic to adult honeybees. One H. alvei strain SMH01 was isolated from the worker bee gut. Then we investigated if the strain contributes to increased mortality of bees with normal or disturbed gut microbiota. Adult worker bees were collected from a brood frame in the hive and were treated with or without tetracycline. After introduction in the lab, groups of bees were fed filter-sterilized sucrose syrup (controls) or tetracycline suspended in the diet (Tet) for 5 days (Fig. 1A). Then we challenged bees with H. alvei SMH01. Bees were orally exposed to H. alvei in their food for 24 h. […] To confirm the pathogenicity of H. alvei to honeybees, we performed histology of honeybee guts exposed to H. alvei. […] Damaged tissue presented barely preserved mucosal architecture of the rectum in H. alvei-infected bees (Fig. 1C and D).
Approximately 200 adult worker bees were collected from brood frame from the hive kept at Miyun County, Beijing (March 2019). The bees were immobilized at 4°C and were divided into two cohorts (control and tetracycline treatment) distributed to cup cages as previously described ([11]). The cup cages were maintained in an incubator at 35°C, with humidity of 50%. Each cohort has five replicating cup cages containing ∼20 bees in each cup. […]

H. alvei = type: cell-based, Hafnia alvei
Protocol: To verify the inhibitory effect of AMPs secreted by honeybees on H. alvei, we performed an in vitro AMP resistance assay (Table S2 in the supplemental material). A. mellifera expresses two dominant apidaecin isoforms (Ia, Ib) at a ratio of approximately 1 : 20 ([31]). […] However, low concentration (8–16 μg/ml) of apidaecin-1a and 1b inhibited the growth of H. alvei, and the pathogen was slightly more resistant to apidaecin Ia than to Ib.
To test the activity of AMPs against H. alvei, growth inhibition assays in liquid media were performed using 50% diluted HIA media. AMPs synthesized by GL Biochem and Sangon Biotech were serially diluted in 96-well plates to obtain concentrations of 0.5 to 512 µg/ml. Overnight grown H. alvei cultures from HIA media were diluted to 1 × 10^6 CFU/ml in 50% Heart Infusion Broth. Optical density was recorded after 24 h of incubation at 35°C, 5% CO2.

[2] = H. alvei 1 × 10^6 CFU/ml in 50% Heart Infusion Broth, optical density after 24 h at 35°C, 5% CO2

CN(C)[C@@H]1C(O)=C(C(N)=O)C(=O)[C@@]2(O)C(O)=C3C(=O)c4c(O)cccc4[C@@](C)(O)[C@H]3C[C@@H]12 [Tetracycline, tetracycline]
survivorship of honeybees after exposure to H. alvei [1]: reduced survivorship

apidaecin-1b
low concentration that inhibited the growth of H. alvei (H. alvei; [2]): 8 to 16 µg/mL | concentration with a profound inhibition on the growth of H. alvei (H. alvei; in vitro growth inhibition, 24 h, 35°C, 5% CO2): ≥ 4 µg/mL

CC[C@H](C)[C@H](NC(=O)[C@H](CCCCN)NC(=O)[C@@H]1CCCN1C(=O)[C@H](CC(N)=O)NC(=O)[C@H](Cc1ccccc1)NC(=O)[C@@H]1CCCN1C(=O)CNC(=O)[C@H](CCC(N)=O)NC(=O)CNC(=O)[C@@H]1CCCN1C(=O)[C@H](Cc1ccccc1)NC(=O)[C@@H](NC(=O)[C@@H]1CCCN1C(=O)[C@H](Cc1ccccc1)NC(=O)[C@@H]1CCCN1C(=O)[C@H](CCCNC(=N)N)NC(=O)[C@H](CCCNC(=N)N)NC(=O)CNC(=O)[C@@H]1CCCN1C(=O)[C@H](CCC(N)=O)NC(=O)[C@@H]1CCCN1C(=O)[C@@H](NC(=O)[C@H](CC(N)=O)NC(=O)[C@@H]1CCCN1C(=O)[C@H](CC(C)C)NC(=O)[C@@H]1CCCN1C(=O)[C@@H](NC(=O)[C@@H](N)Cc1ccc(O)cc1)C(C)C)[C@@H](C)CC)[C@@H](C)O)C(=O)N[C@@H](CCCCN)C(=O)N[C@@H](Cc1c[nH]c2ccccc12)C(=O)N1CCC[C@H]1C(=O)N[C@@H](CCC(N)=O)C(=O)NCC(=O)N[C@@H](Cc1ccc(O)cc1)C(=O)O [abaecin] (H-YVPLPNIPQPGRRPFPTFPGQGPFNPKIKWPQGY-OH; N-terminus and C-terminus assumed)
MIC (H. alvei; 24 h): > 512 µg/mL

hymenoptaecin
MIC (H. alvei; H. alvei 1 × 10^6 CFU/ml in 50% Heart Infusion Broth, AMPs serially diluted 0.5 to 512 µg/ml in 96-well plates, optical density after 24 h at 35°C, 5% CO2): > 512 µg/mL

apidaecin-1a
low concentration that inhibited the growth of H. alvei (H. alvei; [2]): 8 to 16 µg/mL

Reference: publication PMC8729767, “Specific Strains of Honeybee Gut Lactobacillus Stimulate Host Immune System to Protect against Pathogenic Hafnia alvei” (Microbiology Spectrum, 2022)
